According to patent publication US20140378515A1, “IMMUNOSUPPRESSIVE COMPOUNDS” (priority 2013, published 2014):

Assays:
IL-2 production = IL-2 production by PHA/PMA stimulated PBMCs (ELISA); format: cell-based, human; details: experimental IL-2 IC50 listed in Table 3
Procedure: The PBMCs were cultured in a 96-well flat-bottomed plate (1.0×10^5 cell/well) in the presence or absence of three concentrations of test compounds (1.0, 5.0 and 20 μg/mL), and phytohemagglutinin (PHA) phorbol myristate acetate (PMA) in a final concentration of 5 ng/mL and 20 ng/mL, respectively. After an incubation period of 18 h at 37° C. in a humidified atmosphere of 5% CO2 in air, the supernatant was collected for IL-2 determination. Interleukin-2 levels were measured by using enzyme-linked immunosorbent assay (ELISA) development kit (R&D systems, Minneapolis, Minn., USA). The assay was performed according to the manufacturer's instructions. Briefly, a 96-well flat-bottomed ELISA plate was coated with 4.0 μg/mL mouse anti-human IL-2, in PBS, pH 7.4. Then, re-combinant human IL-2 standards and culture supernatant samples were added and incubated for 2 h followed by washing steps and then the addition of biotinylated goat anti-human IL-2. After an incubation period of 2 h at room temperature, the plates were again washed and streptavidin conjugated horse raddish peroxidase was added and incubated for additional 20 min at room temperature. After the final washes, an enzyme substrate solution of H2O2 and tetra methyl benzidine (1:1 v/v) was added and the color was allowed to develop at room temperature in the dark. The plates were then read at 450 nm in a plate reader (DIAReader GMBH, Wr. Neudorf, Austria). The results were analyzed using Microsoft Excel.

[1] = test system: NO produced by mouse macrophages J774.2 cell line; test: Nitrite accumulation in LPS-stimulated J774.2 macrophages (Griess method); format: cell-based; details: LPS-stimulated J774.2, 24 hours
Procedure: The mouse macrophage cell line J774.2 obtained from ECACC, Salisbury, Wiltshire (UK) was cultured in T75 flasks in complete DMEM containing 10% fetal bovine serum and supplemented with 1% streptomycin/penicillin. Flasks were kept at 37° C. in the atmosphere of humidified air containing 5% CO2. Cell were then seeded in 24 well (10^6 cells/mL) and nitric oxide synthase (NOS-2) in the macrophages was induced by addition of 20 μg/mL E. coli lipopolysaccharide (DIFCO Laboratories, Michigan, USA). The test compounds were added at a concentration of 25 μg/mL soon after LPS stimulation and incubated at 37° C. in 5% CO2. Cell culture supernatant was collected after 24 hours. Nitrite accumulation in J774.2 cell culture supernatant was measured using the Griess method, where 50 μL of 1% sulphanilamide in 2.5% phosphoric acid, followed by 50 μL of 0.1% naphtyl-ethylene diamine dihydrochloride in 2.5% phosphoric acid were added to 50 μL culture medium. After 10 minutes of incubation at room temperature the absorbance at 550 nm was read. Micromolar concentrations of nitrite were calculated from standard curve constructed with sodium nitrite a reference compound. The results were expressed as means±SD of duplicate readings.

[2] = test system: 3T3 NIH mouse embryo fibroblast cell line
Procedure: The 3T3-NIH cells were suspended in Dulbecco's Modified Eagle's Medium (DMEM) formulated with 10% FBS. Using flat bottomed plates, cells were plated at a concentration of 6×10^4 cells/mL and incubated for 24 h at 37° C. and 5% CO2 environment. […] Following exposure to each compound, cell viability was assessed by using 0.5 mg/mL of MTT {3-(4,5-dimethylthiazol-2-yl)-2,5-diphenyltetrazolium bromide for 4 h followed by the removal of supernatant and addition of DMSO to solubilize the formazan complex. The plates were read at 540 nm after one minute shaking and readings were processed using MS Excel software. The results were expressed as means±SD of triplicate readings.

T-cell proliferation = T-cell proliferation assay (PHA-stimulated PBMNCs, 3H-thymidine incorporation); format: cell-based, human; parameters: unit not given here; details: PHA 5 μg/mL stimulated PBMNCs
Procedure: The diluted blood was then layered onto lymphocyte separation medium (MP Biomedicals, Inc., Ohio, USA) and centrifuged at 400 g for 20 min at 25° C. […] Plates were then incubated at 37° C. in a humidified atmosphere of 5% CO2 in air for 72 hours. To each well, 0.5 μCi [methyl ^3H]-thymidine (Amersham Place Little Chalfont, Buckinghamshire, UK) was added for an additional 18 hours. Cells were harvested using a cell harvester (Inotech, Dottikon, Switzerland), and incorporation and level of radioactivity was measured by a liquid scintillation counter (Beckman coulter, LS 6500, Fullerton, Calif., USA).

[3] = test system: ROS produced by human blood phagocytes; test: Oxidative burst, luminol-enhanced chemiluminescence in whole blood; format: cell-based; details: serum opsonized zymosan
Procedure: Formation of the reactive oxygen species (ROS) in whole blood, during the oxidative burst was measured by the luminol-enhanced chemiluminescence assay. In brief, three concentrations of each compound (1.0, 10 and 100 μg/mL) were prepared in 25 μL of Hank's Balanced salt solution containing calcium chloride and magnesium sulfate (HBSS^++) in a half area 96-well white flat-bottomed plate (Sigma Aldrich, Steinheim, Germany) in a final volume of 100 μL. Then 25 μL of whole blood diluted 1:50 in suspension of HBSS^++ was added.
Positive and negative controls and blank wells were included. Cells and compounds were incubated for 30 minutes at 37° C., then 25 μL luminol [3-aminophthalhydrazide] (Research Organics Cleveland, Ohio, USA), were added into each well followed by 25 μL of serum opsonized zymosan (Saccharomyces cerevisiae origin) purchased from Fluka, Buchs (Switzerland) was added except for negative and blank wells. The ROS chemiluminescence kinetic was monitored with a luminometer from Labsystems (Helsinki, Finland), for 50 minutes in the repeated scan mode. Peak and total integral chemiluminescence readings were expressed in the relative light unit.

Compound: COc1cccc(-c2nc3ccccc3s2)c1O [Compound 2]
- IC50 (IL-2 production): <1 µg/mL
- % of NO inhibited by 25 μg/mL of compound [1]: 28.9 ± 1.3%
- Cytotoxicity IC50 [2]: >25 µg/mL
- IC50 T-cell proliferation (T-cell proliferation): 2.97±0.3
- IC50 (μg/mL) for phagocytes ROS [3]: 1.9 ± 0.6 µg/mL
